How the values were obtained:
Assay in all cases: relative viability (nuclei count vs DMSO), 5 days (fraction); higher = more cells survive
Sunitinib + Crizotinib = compound: CCN(CC)CCNC(=O)c1c(C)[nH]c(/C=C2\C(=O)Nc3ccc(F)cc32)c1C [Sunitinib] + C[C@@H](Oc1cc(-c2cnn(C3CCNCC3)c2)cnc1N)c1c(Cl)ccc(F)c1Cl [Crizotinib] (partner 1 µM)
In short: (§1)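 A single step with final 0.05% Triton X-100, 1% formaldehyde and 1 ug/ml Hoechst fixed the cells and stained nuclei 5 days after treatment. Lung cancer cell lines in 1536-well plates had been treated by pin tool the day after seeding with one drug alone or a fixed anchor-drug dose plus five library-drug doses (not always all listed) in √10 steps, and nuclei were counted on 4× images. Relative viability is the ratio of nuclei in treated wells to nuclei in vehicle wells, taken as the median of duplicate plates.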

Sunitinib + Vorinostat = compound: CCN(CC)CCNC(=O)c1c(C)[nH]c(/C=C2\C(=O)Nc3ccc(F)cc32)c1C [Sunitinib] + O=C(CCCCCCC(=O)Nc1ccccc1)NO [Vorinostat] (partner 1 µM)
In short: as §1

Sunitinib + Tozasertib = compound: CCN(CC)CCNC(=O)c1c(C)[nH]c(/C=C2\C(=O)Nc3ccc(F)cc32)c1C [Sunitinib] + Cc1cc(Nc2cc(N3CCN(C)CC3)nc(Sc3ccc(NC(=O)C4CC4)cc3)n2)n[nH]1 [Tozasertib] (partner 0.1 µM)
In short: as §1

Sunitinib + Navitoclax = compound: CCN(CC)CCNC(=O)c1c(C)[nH]c(/C=C2\C(=O)Nc3ccc(F)cc32)c1C [Sunitinib] + CC1(C)CCC(c2ccc(Cl)cc2)=C(CN2CCN(c3ccc(C(=O)NS(=O)(=O)c4ccc(N[C@H](CCN5CCOCC5)CSc5ccccc5)c(S(=O)(=O)C(F)(F)F)c4)cc3)CC2)C1 [Navitoclax] (partner 0.5 µM)
In short: as §1

Cell Line	relative viability (Sunitinib + Crizotinib; first compound 0.02 µM)	relative viability (Sunitinib + Crizotinib; first compound 0.06325 µM)	relative viability (Sunitinib + Crizotinib; first compound 0.2 µM)	relative viability (Sunitinib + Crizotinib; first compound 0.6325 µM)	relative viability (Sunitinib + Crizotinib; first compound 2 µM)	relative viability (Sunitinib + Vorinostat; first compound 0.02 µM)	relative viability (Sunitinib + Vorinostat; first compound 0.06325 µM)	relative viability (Sunitinib + Vorinostat; first compound 0.2 µM)	relative viability (Sunitinib + Vorinostat; first compound 0.6325 µM)	relative viability (Sunitinib + Vorinostat; first compound 2 µM)	relative viability (Sunitinib + Tozasertib; first compound 0.02 µM)	relative viability (Sunitinib + Tozasertib; first compound 0.06325 µM)	relative viability (Sunitinib + Tozasertib; first compound 0.2 µM)	relative viability (Sunitinib + Tozasertib; first compound 0.6325 µM)	relative viability (Sunitinib + Tozasertib; first compound 2 µM)	relative viability (Sunitinib + Navitoclax; first compound 0.02 µM)	relative viability (Sunitinib + Navitoclax; first compound 0.06325 µM)	relative viability (Sunitinib + Navitoclax; first compound 0.2 µM)	relative viability (Sunitinib + Navitoclax; first compound 0.6325 µM)	relative viability (Sunitinib + Navitoclax; first compound 2 µM)
COR-L23	0.663	0.748	0.799	0.761	0.727	0.457	0.515	0.484	0.464	0.503	0.19	0.217	0.196	0.215	0.176	0.966	1.08	1.04	1.21	1.15
LK-2	0.203	0.265	0.203	0.23	0.231	0.259	0.391	0.311	0.253	0.413	0.177	0.196	0.167	0.167	0.188	0.737	0.963	1.12	0.862	0.836
SK-LU-1	0.902	0.815	0.969	0.884	0.67	0.821	0.7	0.821	0.86	0.657	0.377	0.424	0.433	0.379	0.332	0.768	0.6	0.796	–	0.727
NCI-H1651	0.866	0.843	0.89	0.921	0.917	0.514	0.736	0.591	0.5	0.514	0.618	0.687	0.787	0.584	0.548	0.922	1.09	1.19	1.08	1.15
NCI-H2126	1.01	1.04	1.07	1.01	1.01	0.73	0.906	0.857	0.808	0.84	0.846	0.852	0.963	0.92	0.81	0.833	0.865	0.904	0.871	0.798
NCI-H596	0.935	0.957	1.01	–	0.81	0.734	0.541	0.594	0.637	0.564	1.01	0.944	0.985	0.912	0.705	0.987	0.802	1.14	0.945	0.956
NCI-H1734	0.645	0.738	0.866	0.746	0.724	0.694	0.91	1.05	0.782	0.782	0.265	0.262	0.25	0.325	0.247	0.785	0.815	0.954	0.846	0.906
NCI-H1648	–	–	–	–	–	0.58	0.465	0.356	0.338	0.442	–	0.477	0.482	0.596	0.667	–	–	–	–	–
NCI-H23	0.478	0.477	0.854	0.548	0.527	0.625	0.841	0.686	0.665	0.674	–	0.37	0.499	0.341	0.264	0.806	0.879	0.899	1.07	0.66
LXF-289	0.771	0.811	0.913	0.8	–	0.688	0.857	0.824	0.779	0.752	0.199	0.182	0.191	0.203	0.269	0.93	0.94	1	0.945	0.915
HCC-44	0.874	0.784	0.937	0.859	0.774	1.15	1.09	1.15	1.09	1.14	0.923	1.01	1.44	1.07	0.499	0.96	0.964	1.05	0.946	0.969
EMC-BAC-2	0.743	0.848	0.821	0.88	0.797	0.458	0.464	0.506	0.506	0.505	0.264	0.297	0.308	0.289	0.332	1.15	–	1.31	1.09	1.22
NCI-H522	–	–	–	–	–	0.831	1.04	0.927	0.922	1.05	0.6	0.568	0.499	0.521	0.682	–	–	–	–	–
NCI-H1975	0.885	0.96	1.05	0.954	–	0.693	0.714	0.77	0.733	0.666	0.705	0.67	0.717	0.318	0.186	1.07	1.15	1.11	1.12	1.12
PC-14	–	0.863	1.08	0.921	0.816	0.689	0.74	0.853	0.834	0.665	0.53	0.589	0.583	0.578	0.523	0.987	0.999	1.1	0.996	0.958
LCLC-103H	1.01	1.09	1.17	1.05	1.06	0.778	0.918	0.868	0.827	0.867	0.459	0.44	0.478	0.44	0.514	–	–	–	–	–
NCI-H1944	–	1.06	1.34	1.24	1.18	0.547	0.736	0.659	0.625	0.559	0.229	0.283	0.283	0.255	0.258	1.03	1.04	1.1	–	1
